Entries after “also recorded” stand apart in the source; their conditions may differ. Where two headings read alike, the source gives them in different places.
Key:
[1] = In vivo BBB penetration experiment, LC-MS/MS of plasma and brain; parameters: species or system CD-1 male mice
Method: Briefly, ten week old CD-1 male mice were purchased from Harlan Laboratories (Frederich, Md.). Compound 9 was diluted to a concentration of 15 mg/mL in a solution with 2% DMSO and 10% Cremophor in PBS, and was administered via oral gavage at a final dosage of 50 mg/kg. Two groups of mice (n=6/group) were used to determine the plasma and brain concentrations of the compound at various time-points. […] Afterwards, the right atrium was removed to allow exsanguination, and the left ventricular apex was cannulated with a 24 G needle and perfused with 30 mL of warm (37° C.) heparinized normal saline solution to enable perfusion of all the organs and complete blood washout. The perfused brains were then collected, rapidly washed in normal saline, blot-dried, and frozen in liquid nitrogen. Brain samples were then analyzed by the LC-MS/MS.
For brain samples, half a brain was weighed and diluted with 1.0 mL of acetonitrile and then mixed well. For plasma samples, 0.01 mL of plasma was diluted with 0.99 mL of acetonitrile and then mixed well. After mixing, samples were centrifuged at 15,000 rpm and the supernatant was transferred to a new tube and evaporated to dryness using spin vacuum. The samples were then reconstituted with an 80:20 solution of 1% acetic acid in acetonitrile: 1% acetic acid in water, and a volume of 0.025 mL was then injected into the LC-MS/MS. The LC/MS/MS method employed positive electrospray ionization (ESI) with a selected reaction monitoring (SRM) mode. Compound 9 was monitored using the following SRM transitions: 381→174, 130, and 159. Chromatographic separation was achieved under gradient conditions using a Waters Acquity® UPLC, with a reversed phase column (Gemini 5u C18 110 Å, 100 mm×2.0 mm; 5 um, Phenomenex Inc., Torrance, Calif.) with a mobile phase composition of 1% acetic acid in water (mobile phase A) and 1% acetic acid in acetonitrile (mobile phase B). The initial gradient consisted of 30% B for 1 min, 30% to 95% B from 1 to 3 min, hold for 1 min at 95% B, and then equilibrate at 30% B for 2.5 min. The total run time was 6.5 min. Results were processed using Analyst 1.5.2 software. Absolute recovery, precision and accuracy, and matrix effects experiments produced an efficient method to continue sample analysis. Calibration curves were made with freshly prepared samples and calculated using peak area versus concentration with a linear or quadratic regression. Accuracy fell in the range of 85% to 115%.
To accurately quantify the amount of 7 that is delivered into brain tissue and rule out the possibility of biased interpretation from vascular trapping, we perfused the mice to wash out the vascular blood completely prior to collecting brain tissues. After oral administration, plasma samples were collected at 0.25, 0.5, 1, and 24 hours, and brain samples were collected at 1 and 24 hours.

[2] = tested on: MC65 cells; experiment: Neuroprotection assay in MC65 cells (−TC, MTT)
Method: MC65 cells were washed twice with PBS, resuspended in Opti-MEM, and seeded in 96-well plates (4×10^4 cells/well). Indicated compounds were then added, and cells were incubated at 37° C. under +TC or −TC conditions for 72 h. Then, 10 μL of MTT (5 mg/mL in PBS) were added and the cells were incubated for another 4 h. Cell medium was then removed, and the remaining formazan crystals produced by the cellular reduction of MTT were dissolved in DMSO. Absorbance at 570 nm was immediately recorded using a FlexStation® 3 plate reader (Molecular Devices, CA).

[3] = tested on: intracellular oxidative stress in MC65 cells; experiment: ROS production assay in MC65 cells (DCFH-DA); type: cell-based; details: −TC, 48 h, DCFH-DA 25 μM, read-out: IC50 for suppression of intracellular oxidative stress
Method: Cells were harvested, washed twice with cold PBS, then suspended in PBS and incubated with DCFH-DA (25 μM) in dark for 1 h. Fluorescence was analyzed by flow cytometry using a Millipore Guava® easyCyte flow cytometer.

[4] = target: T1, Aβ42 (Homo sapiens, UniProt P05067); experiment: AFM analysis of Aβ42 fibril and oligomer formation; type: biochemical; details: 1:1 ratio with Aβ42, 24 h
T1 construct: purchased American Peptide, Inc. (Sunnyvale, Calif.)
Method: Aβ42 oligomers and fibrils were prepared based on reported procedures.^43 Indicated compounds were incubated with Aβ42 at a 1:1 ratio for both conditions for 24 h. Samples were loaded on mica, washed extensively with water, and dried overnight at room temperature before AFM analysis. The morphology of the Aβ42 aggregates was assessed using an atomic force microscope (Dimension Icon, Bruker) operating in tapping mode in air. The scan rate was varied between 1 Hz and 0.5 Hz depending on the tracking quality. The silicon tips (Bruker mpp2100-100) have a sharpness of less than 5 nm and a force constant between 3 and 5 N/m along with a resonant frequency rated between […]. All images were taken with 512 points per line, with a 1:1 ratio. Images were processed using Nanoscope analysis software version 1.20 and Image-J (from the National Institutes of Health).

[5] = tested on: MC65 cells; experiment: Rotenone protection assay in MC65 cells; type: cell-based; details: up to 1 μM, rotenone 10 μM, 48 h
Method: The medium was removed and compounds were added at the indicated concentrations in fresh growth medium, and the cells were incubated for another 2 h. Rotenone was then added at a final concentration of 10 μM, and the plates were then incubated for 48 h. Cell viability was assessed by MTT assay.

[6] = tested on: amyloid-β oligomers (AβOs) in MC65 cells; experiment: Western blot (6E10) of AβOs production in MC65 cells; type: cell-based; details: MC65 cells after removal of TC, 6E10 antibody
Method: MC65 cells (4×10^5 cells/mL) were treated with indicated compounds for 30 h and then were lysed by sonication in a Tricine buffer solution and boiled for 5 min. Protein samples were collected from the supernatant after centrifugation of the samples at 12,800×g for 5 min, and then quantified using the Bradford method. Equal amounts of protein (20.0 μg) were separated by SDS-PAGE on a gel (Bio-Rad) and transferred onto a PVDF membrane (Bio-Rad). The blots were blocked with 5% milk in TBS-Tween 20 (0.1%) solution at room temperature for 1 h and then probed with the 6E10 antibody overnight at 4° C. The blots were washed twice in TB S-Tween 20 for 15 min, and then incubated with a 1:1000 dilution of horseradish peroxidase-conjugated secondary antibody in a 5% milk/PBS-Tween 20 solution at room temperature for 1 h. After washing twice in TBS-Tween 20 for 15 min, the proteins were visualized by a Western Blot Chemiluminescence Reagent (Thermo Fischer Scientific, Waltham, Mass.). The blots were also probed with antibodies against α-tubulin to ensure equal loading of proteins.

T1 sequence (P05067 672-713 limits assumed): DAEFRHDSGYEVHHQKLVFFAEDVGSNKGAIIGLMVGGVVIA

## COc1ccc2[nH]cc(CCNC(=O)CC(=O)CCc3ccc(O)cc3)c2c1 [Compound 7, 5-(4-hydroxy-phenyl)-3-oxo-pentanoic acid [2-(5-methoxy-1H-indol-3-yl)-ethyl]-amide]
[1]; male, CD-1, mouse, brain, po, 50 mg/kg, perfused mice, n = 6, 1 h, read-out: Brain concentration, 1 h
  concentration at 1 h: 0.555 ± 0.188 µM
[1]; male, CD-1, mouse, brain, po, 50 mg/kg, perfused mice, n = 6, 24 h, read-out: Brain concentration, 24 h
  concentration at 24 h: 0.0474 ± 0.0112 µM
[1]; male, CD-1, mouse, plasma, po, 50 mg/kg, mice, n = 6, 15 min
  concentration at 15 min: 0.773 ± 0.31 µM
[1]; male, CD-1, mouse, plasma, po, 50 mg/kg, mice, n = 6, 30 min
  concentration at 30 min: 0.795 ± 0.301 µM
[1]; male, CD-1, mouse, plasma, po, 50 mg/kg, mice, n = 6, 1 h, read-out: Plasma concentration, 1 h
  concentration at 1 h: 0.883 ± 0.35 µM
[1]; male, CD-1, mouse, plasma, po, 50 mg/kg, mice, n = 6, 24 h, read-out: Plasma concentration, 24 h
  concentration at 24 h: 0.0305 ± 0.012 µM
[1]; oral 50 mg/kg, mice
  BBB penetration after oral administration: confirmed to cross the blood-brain barrier; also recorded: confirming its BBB permeability
[1]; oral 50 mg/kg, mice, n = 6, 15 min
  Plasma concentration, 15 min: 0.7738 ± 0.30986 µM
[1]; oral 50 mg/kg, mice, n = 6, 1 h
  Plasma concentration, 1 h: 0.88312 ± 0.35036 µM
[1]; oral 50 mg/kg, mice, n = 6, 24 h
  Plasma concentration, 24 h: 0.03053 ± 0.01196 µM
[1]; oral 50 mg/kg, perfused mice, n = 6, 1 h
  Brain concentration, 1 h: 0.5554 ± 0.18844 µM
[1]; oral 50 mg/kg, perfused mice, n = 6, 24 h
  Brain concentration, 24 h: 0.04741 ± 0.01119 µM
[2]; 0.3 μM, −TC, 72 h, MTT
  neuroprotection of MC65 cells from −TC induced cell death: significant and comparable protection
[2]; MC65, 72 h, read-out: EC50 for neuroprotection of MC65 cells
  EC50: 0.0276 ± 0.0094 µM
[3]
  IC50: ~0.068 µM
[4]
  inhibition of fibrillization and oligomerization of Aβ42 (AFM): no inhibition
[5]
  protection from rotenone-induced cytotoxicity: did not show protection
[6]
  effect on the production of AβOs (tetramers, pentamers, heptamers): moderate inhibitory effects; also recorded: dose-dependently suppressed
